Source: patent US12331312B2, “Deterministic culturing of single cells” (Purdue Research Foundation, priority 2020, dated 2025)

Tested on: MCF7 tumors
Assay: Paclitaxel treatment of single-cell-derived MCF7 tumors on collagen islands; apoptosis counted by Hoechst nuclear morphology
Format: cell-based
Procedure: Hoechst staining was used to visualize cells in the tumor using fluorescence microscopy (FIG. 4). Specifically, cells were washed in PBS and fixed in 4% paraformaldehyde before staining with 1:1000 PBS diluted solution of 20 mM Hoechst 33342 (Thermo Fischer Scientific, Waltham, MA) for 10 minutes. After washing once with PBS, tumors were imaged with a ZEISS LSM 800 confocal microscope with an excitation laser of 401 nm wavelength and with 10× magnification lens (EC Plan-Neofluar® 10×/0.30 M27). Bright-field and fluorescence images were also obtained using NIKON ECLIPSE® 80i upright fluorescence microscope, which were used to analyze the morphology of the tumors with ImageJ. […]
For each tumor, dead and live nuclei at every alternate plane of the z-stack were manually counted using Fiji cell counting software. […]
Since each island comprises a relatively small amount of collagen (e.g. as opposed to an entire well of a 96-well plate), excess dye that inadvertently diffuses into the collagen can be washed easily to reduce any background fluorescence signal. Live and dead cells (the latter indicated by smaller or fragmented nuclei with intense staining due to DNA condensation) from individual planes of z-stack confocal images of each tumor were manually counted according to a procedure described by Crowley et al. (see, e.g., Crowley et al., Cold Spring Harb. Protoc. pdb.prot087205 2016). […]

CC(=O)O[C@H]1C(=O)[C@@]2(C)[C@H]([C@H](OC(=O)c3ccccc3)[C@]3(O)C[C@H](OC(=O)[C@H](O)[C@@H](NC(=O)c4ccccc4)c4ccccc4)C(C)=C1C3(C)C)[C@]1(OC(C)=O)CO[C@@H]1C[C@@H]2O [Paclitaxel]
average cell death (percentage of apoptotic cells) (13-day old MCF7 tumors, Paclitaxel 5 nM, 20 nM and 100 nM for 24 hours, Hoechst 33342 nuclear morphology): increased with drug concentration | variation in the response of individual tumors (each drug concentration (5, 20, 100 nM), 24 hours): significant variation in the response of individual tumors for each drug concentration
